What was measured:
HIV-1 NLAD8 = experiment: HIV inhibition assay in P4C5 HeLa cells (β-gal activity); assay type: cell-based; settings: CCR5-tropic virus
HIV-1 NL43 = experiment: as above; assay type: cell-based; settings: CXCR4-tropic strain
VSV-G pseudotyped virus = assay type: cell-based, HIV (VSV)

Cc1ccnc2c1NC(=O)c1cccnc1N2C1CC1 [Nevirapine, reference compound]
blocks all viruses tested: inhibition of infection with HIV-1 NLAD8 (HIV-1 NLAD8) | inhibition of infection with HIV-1 NL43 (HIV-1 NL43) | inhibition of infection with VSV-G pseudotyped virus (VSV-G pseudotyped virus)
